Legend:
Type in all cases: ADME
[1] = Substrate activity at recombinant His-tagged Lactobacillus casei alpha L-fucosidase expressed in Escherichia coli […] assessed as de-fucosylation of N-glycan at 5 mg/ml measured after 21 hrs by LC/MS analysis; conditions: lacticaseibacillus casei
[2] = Substrate activity at recombinant His-tagged Bacteroides fragilis alpha L-fucosidase expressed in Escherichia coli BL21(DE3) assessed as de-fucosylation of N-glycan at 5 mg/ml measured after 21 hrs by LC/MS analysis
[3] = Substrate activity at recombinant His-tagged Bacteroides fragilis alpha L-fucosidase expressed in Escherichia coli BL21(DE3) assessed as formation of p-nitrophenyl products at 5 mM measured by UV spectrometer assay; conditions: 5000 µM
[4] = Substrate activity at recombinant His-tagged Lactobacillus casei alpha L-fucosidase expressed in Escherichia coli […] assessed as formation of p-nitrophenyl products at 5 mM measured by UV spectrometer assay; conditions: lacticaseibacillus casei, 5000 µM

Row | Activity [1] | Activity [2] | Activity [3] | Activity [4] | SMILES
1 | Not Active | Not Active | – | – | CC(=O)N[C@@H]1[C@@H](O)[C@H](O[C@@H]2O[C@H](CO)[C@@H](O[C@@H]3O[C@H](CO[C@H]4O[C@H](CO)[C@@H](O)[C@H](O)[C@@H]4O[C@@H]4O[C@H](CO[C@@H]5O[C@H](CO[C@]6(C(=O)O)C[C@H](O)[C@@H](NC(C)=O)C([C@H](O)[C@H](O)CO)O6)[C@H](O)[C@H](O)[C@H]5O)[C@@H](O)[C@H](O)[C@H]4NC(C)=O)[C@@H](O)[C@H](O[C@H]4O[C@H](CO)[C@@H](O)[C@H](O)[C@@H]4O[C@@H]4O[C@H](CO)[C@@H](O[C@@H]5O[C@H](CO[C@]6(C(=O)O)C[C@H](O)[C@@H](NC(C)=O)C([C@H](O)[C@H](O)CO)O6)[C@H](O)[C@H](O)[C@H]5O)[C@H](O)[C@H]4NC(C)=O)[C@@H]3O)[C@H](O)[C@H]2NC(C)=O)[C@@H](CO[C@H]2O[C@H](C)[C@H](O)[C@H](O)[C@H]2O)O[C@H]1NC(=O)CNC(=O)C[C@H](NC(=O)[C@H](CCC(N)=O)NC(=O)CN)C(=O)N[C@@H](CC(=O)O)C(=O)N[C@H](C(=O)N[C@@H](CO)C(=O)N[C@@H](CCC(N)=O)C(=O)N[C@H](C(=O)N[C@@H](CO)C(=O)N[C@@H](CO)C(=O)N1CCC[C@H]1C(=O)N[C@@H](CO)C(=O)N[C@@H](CC(C)C)C(=O)N1CCC[C@H]1C(=O)N[C@@H](CCCCN)C(=O)N[C@H](C(=O)NCC(=O)NCC(=O)N[C@@H](CO)C(=O)O)[C@@H](C)O)[C@@H](C)O)[C@@H](C)O (some centres undefined)
2 | – | – | Active | Not Active | C[C@@H]1O[C@@H](Oc2ccc([N+](=O)[O-])cc2)[C@@H](O)[C@H](O)[C@@H]1O
